Results: paper PMC8467576, “Novel Ubiquitin Specific Protease-13 Inhibitors Alleviate Neurodegenerative Pathology” (Metabolites, 2021)

System: Nissl+ cells
Assay: Nissl staining neuron counts in TgA53T mice
Type: in vivo, mouse
Details: 40 mg/Kg I.P. daily for 7 days, vs DMSO
Procedure: BK50118-C is one of novel small molecule inhibitors of USP13 synthesized in our laboratory. For BK50118-C treatment, approximately 15 months old (±1 month) male and female TgA53T mice were treated with intraperitoneal injection of vehicle (DMSO) or BK50118-C at the daily dosage of 10 mg/Kg or 40 mg/Kg for 7 days. Animals were age and sex-matched in their respective treatment cohorts. All animals were sacrificed after treatment. All experiments were conducted in full compliance with the recommendations of Georgetown University Animal Care and Use Committee. These experiments were conducted under animal protocol No. 2016-1194 titled, Misfolded Protein Clearance in Neurodegeneration, which was approved by the Georgetown University IACUC. Protocol Information: IACUC Protocol Number: 2016-1194. Protocol Approval Date: 14 September 2020 Expiration Date: 14 September 2023.
Nissl staining was performed using FD Cresyl Violet Solution™ Regular Strength (FD NeuroTechnologies, Cat PS102-01, Columbia, MD, USA) as per manufacturer’s instructions. Silver staining was performed using FD NeuroSilver™ (FD NeuroTechnologies, Cat PK301,) as per manufacturer’s instructions.
Suppl Figure S3. BK50118-C improved cell survivals in TgA53T mice. Male and female TgA53T mice were treated with intraperitoneal injection of vehicle or BK50118-C at the daily dosage of 40 mg/Kg for 7 days. […]
substantia nigra (SN) H) compared to corresponding vehicles A), D) and G), verified […]
(1 picture or pasted object on this page, not shown here) […]
by quantification of Nissl+ cells in cortex C), striatum F) and SN I). Asterisk indicates statistic significant difference vs vehicle. * p<0.05 vs vehicle. Two-tailed student’s t test was used for analysis. N=3-4 mice per group. All values presented as Mean±SD.

Measured: neuron counts (Nissl+ cells)

Fc1ccc2nccc(OCc3ccccc3)c2c1 [BK50118-C, 4-benzyloxy-6-fluoroquinoline]
significantly increased: cortex | striatum | substantia nigra (SN)
